From ChEMBL document CHEMBL1201862, “PubChem BioAssay data set” (2004)
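In this assay, cells in 96-well plates receive the compound at five concentrations for 48 hours. Endpoints are linearly interpolated between the surrounding concentrations. GI50: concentration for 50% inhibition of growth.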 Calls of active or inactive are those of the source. No stated cut-off is given here; in the data, active = GI50 up to about 1.1 µM and inactive = higher.

Columns and labels:
Assay in all cases: DTP human tumour cell line panel, 48 h
HL-60 = test system: HL-60
NCI-H23 = test system: NCI-H23
SK-MEL-2 = test system: SK-MEL-2
TK-10 = test system: TK-10
NCI-H460 = test system: NCI-H460
COLO 205 = test system: COLO 205
CAKI-1 = test system: CAKI-1
NCI-H522 = test system: NCI-H522
HT-29 = test system: HT-29
SNB-75 = test system: SNB-75
NCI-H226 = test system: NCI-H226
ACHN = test system: ACHN
HCC 2998 = test system: HCC 2998
OVCAR-5 = test system: OVCAR-5
SF-295 = test system: SF-295
SNB-19 = test system: SNB-19
A549 = test system: A549
SK-OV-3 = test system: SK-OV-3

Structure (SMILES)	GI50 (HL-60)	GI50 (NCI-H23)	GI50 (SK-MEL-2)	GI50 (TK-10)	GI50 (NCI-H460)	GI50 (COLO 205)	GI50 (CAKI-1)	GI50 (NCI-H522)	GI50 (HT-29)	GI50 (SNB-75)	GI50 (NCI-H226)	GI50 (ACHN)	GI50 (HCC 2998)	GI50 (OVCAR-5)	GI50 (SF-295)	GI50 (SNB-19)	GI50 (A549)	GI50 (SK-OV-3)
CCOc1ccc(C(CN2CCOCC2)C(C)=O)cc1OC (stereo not given)	3.78 µM (inactive)	18.6 µM (inactive)	14.3 µM (inactive)	17.1 µM (inactive)	18.4 µM (inactive)	6.62 µM (inactive)	10.8 µM (inactive)	1.22 µM (inactive)	19.6 µM (inactive)	18.7 µM (inactive)	17.7 µM (inactive)	14.2 µM (inactive)	18.4 µM (inactive)	19 µM (inactive)	39.6 µM (inactive)	17.1 µM (inactive)	24.6 µM (inactive)	–
CC(=O)Nc1ccc(C(=O)N2N=C(C)/C(=C\c3c(O)ccc4ccccc34)C2=O)cc1	57.4 µM (inactive)	> 100 µM (inactive)	29.8 µM (inactive)	0.1 µM (active)	> 100 µM (inactive)	> 100 µM (inactive)	> 100 µM (inactive)	67 µM (inactive)	> 100 µM (inactive)	> 100 µM (inactive)	39.5 µM (inactive)	30.6 µM (inactive)	> 100 µM (inactive)	> 100 µM (inactive)	40.5 µM (inactive)	> 100 µM (inactive)	> 100 µM (inactive)	–
O=S(=O)(N/N=C/c1ccc(/C=N/NS(=O)(=O)c2ccccc2)cc1)c1ccccc1	23.2 µM (inactive)	35.2 µM (inactive)	43.5 µM (inactive)	60.7 µM (inactive)	49.9 µM (inactive)	21.4 µM (inactive)	–	–	59.6 µM (inactive)	70.3 µM (inactive)	> 100 µM (inactive)	55.8 µM (inactive)	> 100 µM (inactive)	4.36 µM (inactive)	15.5 µM (inactive)	–	77.6 µM (inactive)	> 100 µM (inactive)
Cc1cccc(NC(=O)c2cc3cc(/N=N/c4ccccc4Cl)ccc3oc2=O)c1	> 100 µM (inactive)	19.7 µM (inactive)	–	36 µM (inactive)	27 µM (inactive)	57.7 µM (inactive)	41.1 µM (inactive)	22.3 µM (inactive)	38.2 µM (inactive)	60.8 µM (inactive)	13 µM (inactive)	40 µM (inactive)	26.1 µM (inactive)	23.4 µM (inactive)	40 µM (inactive)	49 µM (inactive)	77.3 µM (inactive)	88.7 µM (inactive)
Cc1cc(C)c(C2=NO[C@@H]3C(=O)N(c4ccc(Cc5ccc(N6C(=O)[C@H]7C(c8c(C)cc(C)cc8C)=NO[C@H]7C6=O)cc5)cc4)C(=O)[C@H]23)c(C)c1	> 100 µM (inactive)	> 100 µM (inactive)	> 100 µM (inactive)	> 100 µM (inactive)	–	> 100 µM (inactive)	> 100 µM (inactive)	–	> 100 µM (inactive)	> 100 µM (inactive)	> 100 µM (inactive)	–	> 100 µM (inactive)	> 100 µM (inactive)	> 100 µM (inactive)	–	> 100 µM (inactive)	> 100 µM (inactive)
CCOP(=O)(OCC)C1C(=O)O[C@H]2CCCC[C@@H]12 (stereo not given in full)	–	> 100 µM (inactive)	> 100 µM (inactive)	> 100 µM (inactive)	> 100 µM (inactive)	> 100 µM (inactive)	> 100 µM (inactive)	–	> 100 µM (inactive)	> 100 µM (inactive)	–	> 100 µM (inactive)	> 100 µM (inactive)	> 100 µM (inactive)	> 100 µM (inactive)	> 100 µM (inactive)	> 100 µM (inactive)	> 100 µM (inactive)
CN1CCCc2nc3ccccc3n2C1	> 100 µM (inactive)	> 100 µM (inactive)	> 100 µM (inactive)	> 100 µM (inactive)	> 100 µM (inactive)	> 100 µM (inactive)	> 100 µM (inactive)	97.7 µM (inactive)	> 100 µM (inactive)	> 100 µM (inactive)	> 100 µM (inactive)	> 100 µM (inactive)	–	> 100 µM (inactive)	> 100 µM (inactive)	> 100 µM (inactive)	> 100 µM (inactive)	> 100 µM (inactive)
CC1=NC=C(O)c2ccccc2O1	> 100 µM (inactive)	> 100 µM (inactive)	> 100 µM (inactive)	> 100 µM (inactive)	> 100 µM (inactive)	> 100 µM (inactive)	–	–	> 100 µM (inactive)	–	–	> 100 µM (inactive)	> 100 µM (inactive)	–	45 µM (inactive)	> 100 µM (inactive)	> 100 µM (inactive)	> 100 µM (inactive)
